Data taken from article PMC11930087, “Mobility of four structural regions drives isoform-specific properties of photoenzyme LPOR in plants” (The Journal of Biological Chemistry, 2025).

Columns and labels:
PeaPOR = molecular target: T1, PeaPOR (Lathyrus oleraceus, UniProt Q01289); assay: […] K Pchlide fluorescence in darkness, F648/F635 ratio vs NADPH, hyperbolic fit; type: binding; details: lipid-free; 5 μM Pchlide, 15 μM LPOR, pH 7.1, room-temperature dark incubation; apparent parameter, exact value in supplement; read-out: KM^D
T1 construct: gene 3PCR; transit peptide removed; pET15b
T1 sequence (Q01289 65-399): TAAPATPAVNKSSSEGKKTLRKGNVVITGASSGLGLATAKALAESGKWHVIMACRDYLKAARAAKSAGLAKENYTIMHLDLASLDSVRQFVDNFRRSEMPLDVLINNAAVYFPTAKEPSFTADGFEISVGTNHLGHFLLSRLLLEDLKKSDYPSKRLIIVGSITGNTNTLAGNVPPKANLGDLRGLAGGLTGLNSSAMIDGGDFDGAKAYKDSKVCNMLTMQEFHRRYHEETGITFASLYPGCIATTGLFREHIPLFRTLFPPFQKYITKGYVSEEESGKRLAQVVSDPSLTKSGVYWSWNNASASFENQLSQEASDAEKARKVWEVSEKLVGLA

AtPORC = molecular target: T2, AtPORC (Arabidopsis thaliana, UniProt O48741); details: 400 uM OPT lipids; substrate; read-out: illuminated, 400 uM OPT, KM^L
T2 construct: gene PORC
T2 sequence (O48741 68-401): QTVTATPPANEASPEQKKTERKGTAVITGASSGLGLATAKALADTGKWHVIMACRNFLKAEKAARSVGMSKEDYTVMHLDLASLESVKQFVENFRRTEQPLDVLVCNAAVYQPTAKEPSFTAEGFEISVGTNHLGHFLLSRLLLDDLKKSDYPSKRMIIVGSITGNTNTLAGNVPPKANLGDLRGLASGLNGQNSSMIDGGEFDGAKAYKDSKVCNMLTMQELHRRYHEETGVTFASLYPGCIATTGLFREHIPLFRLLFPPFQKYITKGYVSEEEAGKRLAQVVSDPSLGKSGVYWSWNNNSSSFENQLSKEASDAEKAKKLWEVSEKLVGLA
Description: (§1) All samples were thawed in darkness, illuminated for 20 s to initiate the reaction, and then frozen again and remeasured. […] These plots also resembled saturation curves, to which a hyperbolic function similar to the modified Michaelis–Menten equation could be fitted (Figs. 3C, S5, Materials and Methods).

AtPORA = molecular target: T3, AtPORA (Arabidopsis thaliana, UniProt Q42536); details: 400 uM OPT lipids; substrate; read-out: illuminated, 400 uM OPT, KM^L
T3 construct: gene PORA
T3 sequence (Q42536 70-405): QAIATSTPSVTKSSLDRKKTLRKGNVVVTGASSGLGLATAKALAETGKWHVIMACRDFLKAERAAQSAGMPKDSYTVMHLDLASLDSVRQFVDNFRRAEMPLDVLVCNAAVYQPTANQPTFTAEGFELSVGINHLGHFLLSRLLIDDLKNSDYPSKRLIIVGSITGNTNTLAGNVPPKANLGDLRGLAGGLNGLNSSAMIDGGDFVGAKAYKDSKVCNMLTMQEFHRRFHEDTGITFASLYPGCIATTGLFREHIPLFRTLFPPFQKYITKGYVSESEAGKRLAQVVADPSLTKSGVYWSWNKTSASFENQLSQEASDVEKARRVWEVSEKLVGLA
Description: as §1

AtPORB = molecular target: T4, AtPORB (Arabidopsis thaliana, UniProt P21218); details: 400 uM OPT lipids; substrate; read-out: illuminated, 400 uM OPT, KM^L
T4 construct: gene PORB
T4 sequence (P21218 67-401): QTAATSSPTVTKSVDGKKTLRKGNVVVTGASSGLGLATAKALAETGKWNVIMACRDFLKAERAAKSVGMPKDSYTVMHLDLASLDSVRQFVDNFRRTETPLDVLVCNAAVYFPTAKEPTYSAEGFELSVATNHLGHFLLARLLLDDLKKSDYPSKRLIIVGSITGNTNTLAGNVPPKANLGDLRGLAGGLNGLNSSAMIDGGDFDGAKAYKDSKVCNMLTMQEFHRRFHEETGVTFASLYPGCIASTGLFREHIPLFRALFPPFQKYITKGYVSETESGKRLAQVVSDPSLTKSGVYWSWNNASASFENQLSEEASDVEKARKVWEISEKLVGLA
Description: as §1

Kd (PeaPOR): < 10 µM
Km (AtPORC): 0.7 µM
Km (AtPORA): 2.5 µM
Km (AtPORB): 1.3 µM
SMILES: NC(=O)C1=CN([C@@H]2O[C@H](COP(=O)(O)OP(=O)(O)OC[C@H]3O[C@@H](n4cnc5c(N)ncnc54)[C@H](OP(=O)(O)O)[C@@H]3O)[C@@H](O)[C@H]2O)C=CC1 [NADPH]
